Source: publication PMC5126668 (PeerJ, 2016)
Several values for one entry are separate records, joined by “and”; a condition that tells them apart may be missing. Equal values may be shown once.

Key:
rat liver = assay: Hepatic functional markers (ALT, AST) in rats after a single oral dose; type: in vivo, Sprague–Dawley rats; conditions: 24 h after single oral dose, mg/kg: AA I 70, BAK 200, ABT 100, GA 100, combinations 200+100
Method: (§1) The blood samples were taken 24 h after the administration of a single oral dose in each group. The samples were promptly centrifuged, and the biochemical parameters, including the levels of ALT, AST, BUN, Cr, and NAG, were then measured. The level of Kim-1 was measured in collected urine samples according to the kit instructions.

rat kidney [1] = assay: Kim-1 in rat urine after a single oral dose (ELISA); type: in vivo, Sprague–Dawley rats; conditions: for KIM-1: single oral dose
Method: as §1

rat kidney [2] = assay: Renal functional markers (BUN, Cr, NAG) in rats after a single oral dose; conditions: for BUN / Cr / NAG: rats, single oral dose
Method: ABT, a broad-spectrum nonspecific CYP inhibitor, was selected as a positive control inhibitor of CYP enzymes. Aristolochic acid A (AA I) was selected as the nephrotoxicity positive control in the study.
The samples were promptly centrifuged, and the biochemical parameters, including the levels of ALT, AST, BUN, Cr, and NAG, were then measured. The level of Kim-1 was measured in collected urine samples according to the kit instructions.

[3] = individual animals (Fig. 3 data)
[4] = rat, 24 h after single oral dose, vs vehicle control

COc1cccc2c1cc([N+](=O)[O-])c1c(C(=O)O)cc3c(c12)OCO3 [AA I, Aristolochic acid A]
ALT (IU/L) (rat liver): 41.91±3.40 IU/L
AST (IU/L) (rat liver): 29.08±8.01 IU/L
Kim-1 level (in words) (rat kidney [1]; after single oral dose, vs vehicle control): significantly increased
KIM-1 (rat kidney [1]; group Mean (Fig. 3 data)): 1538.00 pg/mL
KIM-1 (rat kidney [1]; [3]): 804.00 pg/mL and 2994.00 pg/mL and 624.00 pg/mL and 2464.00 pg/mL
BUN level (in words) (rat kidney [2]; [4]): significantly increased
Cr level (in words) (rat kidney [2]; [4]): significantly increased
NAG level (in words) (rat kidney [2]; [4]): significantly increased
BUN (rat kidney [2]; group Mean (Fig. 3 data)): 6.405 mmol/L
Cr (rat kidney [2]; group Mean (Fig. 3 data)): 367.877 µmol/L
NAG (rat kidney [2]; group Mean (Fig. 3 data)): 42.409 IU/L
BUN (rat kidney [2]; [3]): 5.797 mmol/L and 6.023 mmol/L and 6.135 mmol/L and 7.373 mmol/L and 6.698 mmol/L
Cr (rat kidney [2]; [3]): 298.782 µmol/L and 308.970 µmol/L and 369.706 µmol/L and 567.416 µmol/L and 294.508 µmol/L
NAG (rat kidney [2]; [3]): 23.912 IU/L and 43.077 IU/L and 48.176 IU/L and 27.429 IU/L and 69.451 IU/L
